Results taken from patent US20230235289A1, “METHOD FOR FIBROBLAST REJUVENATION BY MECHANICAL REPROGRAMMING AND REDIFFERENTIATION” (Paul Scherrer Institut, priority 2020, published 2023).

Legend:
FC (3T3 clumps) [1] = assay: Nuclear dynamics by time-lapse confocal microscopy of Hoechst 33342 stained nuclei; type: cell-based, mouse; conditions: TSA-treated FC compared to control FC
Description: Nuclear dynamics were analyzed from the decorrelation of the nuclear images in time as described previously(37). Time-lapse live-imaging of nucleus stained with Hoechst 33342 (ThermoFisher Scientific) was done in confocal mode with time intervals of one minute for up to 32 minutes in PR, FC and FC+TSA conditions. One Pearson correlation coefficient (PCC) value was calculated from two lists of pixel intensity of the same nucleus captured in different time points with a certain time lag. For each cell, one PCC curve was drawn which connecting all PCCs (as y) with the increasing time lags (as x) as represented in dim color in FIG. 5A. The mean PCC curves for all cells in each condition, were drawn in bright color in FIG. 5A. The mean PCC curves in each condition were fitted by equation y=(1−α)+α exp(−t/τ)−η, where y refers to PCC value, t is time lags, fitting parameter α is drop rate, τ is time constant, η is noise.

FC (3T3 clumps) [2] = assay: H3K9ac immunofluorescence; type: cell-based, mouse; conditions: TSA-treated FC compared to untreated FC
Description: (§1) Cells embedded in Collagen-I gel were fixed with 4% Paraformaldehyde (Sigma) in PBS buffer (pH 7.4) for 25 min, followed by washing with PBS+100 mM glycine buffer (5 min×3). Cells were permeabilized using 0.5% Triton (Sigma-Aldrich) in PBS for 20 min, followed by washing with PBS-glycine buffer (5 min×3). After that, cells were blocked with 10% goat serum (ThermoFisher Scientific) in IF wash buffer (PBS+0.2% Triton+0.2% tween 20) for 3 h at room temperature. Next, cells were incubated overnight with different primary antibodies diluted in blocking buffer, followed by washing with IF wash buffer (15 min×3). […] Cell nuclei were stained with NucBlue Live Ready Probes (Molecular Probes; Thermo Fisher Scientific) in PBS for 10 min at room temperature, and filamentous actin was labeled using phalloidin Alexa Fluor 488 or 568 (1:100; Molecular Probes; Thermo Fisher Scientific) for 45 min.
(§2) Fluorescent images of 3D spheroids and cells embedded in 3D Collagen-I gel were acquired by using Nikon AIR laser scanning confocal microscope (Nikon Instruments Inc, Japan), at either 20× magnification (Plan Apo 20× ELWD, NA 0.8) or 63× magnification (1.25 NA oil objective) with identical acquisition settings. […] The sprouting length of each spheroid embedded in 3D collagen matrix was measured from the large field fluorescent micrograph of actin using AngioTools software.

[3] = tested on: FC embedded in 3D collagen matrix (FCG); assay: pMLC immunofluorescence of sprouted cells in 3D collagen matrix; type: cell-based, mouse
Description: as §1, §2

[4] = tested on: RF embedded in fibrillary collagen matrix; assay: Collagen fibre remodeling/stiffening by matrix-embedded fibroblasts (immunostained collagen); type: cell-based, mouse; conditions: for collagen fiber stiffening: addition to spheroids sprouting in collagen matrix
Description: In order to characterize these RF in vitro, one compared the gel contraction abilities of cells derived from PR spheroids or from FC, both of which were equally embedded in the 3D collagen matrix. […] Fibroblasts are known to exert mechanical forces on the extracellular matrix surrounding them. […] Both RF and FCG embedded in fibrillary collagen matrix were able to remodel collagen fibrils into thicker bundles (FIG. 3F).
Cells embedded in Collagen-I gel were fixed with 4% Paraformaldehyde (Sigma) in PBS buffer (pH 7.4) for 25 min, followed by washing with PBS+100 mM glycine buffer (5 min×3). Cells were permeabilized using 0.5% Triton (Sigma-Aldrich) in PBS for 20 min, followed by washing with PBS-glycine buffer (5 min×3). After that, cells were blocked with 10% goat serum (ThermoFisher Scientific) in IF wash buffer (PBS+0.2% Triton+0.2% tween 20) for 3 h at room temperature. Next, cells were incubated overnight with different primary antibodies diluted in blocking buffer, followed by washing with IF wash buffer (15 min×3). Cells were then incubated with corresponding fluorescent-labeled secondary antibodies diluted in 5% goat serum in IF wash buffer for 3 h at room temperature. Cell nuclei were stained with NucBlue Live Ready Probes (Molecular Probes; Thermo Fisher Scientific) in PBS for 10 min at room temperature, and filamentous actin was labeled using phalloidin Alexa Fluor 488 or 568 (1:100; Molecular Probes; Thermo Fisher Scientific) for 45 min.
Fluorescent images of 3D spheroids and cells embedded in 3D Collagen-I gel were acquired by using Nikon AIR laser scanning confocal microscope (Nikon Instruments Inc, Japan), at either 20× magnification (Plan Apo 20× ELWD, NA 0.8) or 63× magnification (1.25 NA oil objective) with identical acquisition settings. In the Z dimension, each spheroid and 3D Collagen-I gel was scanned up to a depth of 50 μm, with a step size of 1 to 5 μm. Confocal images of either 512×512 or 1024×1024 pixels were obtained with an XY optical resolution of 0.42 μm or 0.21 μm, respectively. Time lapse imaging was done in confocal mode for up to 60 min and 18 h with 60 s and 30 m time intervals, respectively. Bright-field images were acquired using the EVOS FL Cell Imaging System (Thermo Fisher Scientific). For gel contraction assay, images of collagen gel at different days of cell growth were acquired with a mobile camera at a fixed magnification. The fluorescence intensity was measured for each protein in its respective channel and the number of gH2Ax foci per nucleus was determined using custom-written code in Fiji (NI) MATLAB (Mathworks) and IMARIS8. The sprouting length of each spheroid embedded in 3D collagen matrix was measured from the large field fluorescent micrograph of actin using AngioTools software.

[5] = tested on: 6 day-old spheroids of NIH3T3 mouse embryonic fibroblasts; assay: Cell sprouting from partially reprogrammed spheroids in 3D collagen matrix (AngioTools); type: cell-based; conditions: addition to spheroids sprouting in collagen matrix
Description: These 6 day-old spheroids were embedded in collagen gels and cultured for at least 2 days (FIG. 1A). Within few hours, cells originating from the spheroids progressively invaded the collagen matrix and migrated either individually as unicellular sprouts (single cells) or collectively as complex capillary-like structures (FIG. 1B). In addition to cell invasion, morphological modifications in the spheroid core itself were detected. While the spheroids initially appeared as a compact structure, subsequent cell migration induced spheroid expansion occurred and led to breaches in the spheroid core. […]
as §2, with “The fluorescence intensity was measured for each protein in its respective channel and the number of gH2Ax foci per nucleus was determined using custom-written code in Fiji (NI) MATLAB (Mathworks) and IMARIS8. The” for “The”

## CC(/C=C/C(=O)NO)=C\[C@@H](C)C(=O)c1ccc(N(C)C)cc1 [TSA, Trichostatin A]
FC (3T3 clumps) [1]
  nuclear dynamics: increase in nuclear dynamics
FC (3T3 clumps) [2]
  H3K9ac levels: significant increase
[3]; TSA-treated FCG compared to untreated FCG and RF
  level of pMLC: higher level
[3]; fibroblasts treated with the HDAC inhibitor
  contractility upon exposure to ECM-related cues: increased contractility

## C[C@@H](N)[C@H]1CC[C@H](C(=O)Nc2ccncc2)CC1 [Y-27632]
[4]; 25 μM
  remodeling of collagen fibrils around RF: very less or no remodeling

## Cc1ccc2c(c1)C(=O)C1(O)CCN(c3ccccc3)C1=N2 (stereo not shown) [blebbistatin]
[5]
  average sprouting length: significant reduction
[4]
  collagen fiber stiffening: drop

## C=C1[C@@H](C)[C@H]2[C@H](Cc3ccccc3)NC(=O)[C@]23[C@H](OC(C)=O)/C=C/[C@@](C)(O)C(=O)[C@@H](C)C/C=C/[C@H]3[C@@H]1O [cytoD, cytochalasin D]
[5]
  average sprouting length: significant reduction
[4]; 4 μM
  remodeling of collagen fibrils around RF: very less or no remodeling
[4]
  collagen fiber stiffening: drop
